# *1 amine or outer side, *2 acyl side, *3 side chain or, on linkers, in order; H or OH if unused. Where a SMILES comes first, the peptide text is derived from it. Side-chain parts run from the residue outwards. [ ]: non-standard residue; d: D form. The star is where a group is joined. γGlu = O=C(O)[C@H](CCC(=O)[*:2])N[*:1]; Palmitoyl = CCCCCCCCCCCCCCCC(=O)*; Aib = CC(C)(N)C(=O)O
# Experiment: Sub-chronic effects on adiposity/body weight in diet-induced obese mice
# Type: in vivo, C57BL/6J mice
# Settings: DIO mice, 5 nmol/kg s.c. twice daily for 31 days
# Procedure: Male C57BL/6J mice (Taconic A/S, Denmark) at an age of 5 weeks were maintained on a 12:12 hour light-dark cycle on a high-fat diet (60% of total energy from fat, D12492, Research Diet Inc.) for 20 weeks. All mice (housed 2 per cage) were then mock-treated for a week to acclimatize the animals to handling and injections. Subsequently, the mice were stratified according to body fat mass (measured by magnetic resonance technique) and body weight into 9 groups (n=9-12). Animals were thereafter treated twice daily with subcutaneous injections (5 ml/kg) of vehicle (25 mM phosphate buffer, pH 7.4) or test substances (5 nmol/kg per administration, in equivalent amount of vehicle) for a total of 31 days. The daily injections were given at the start and at the end of the light phase. Body weight, food and water intake were determined daily throughout the study. The data are presented in Table 6 as mean body weight change±S.E.M. S.E.M. is defined as standard error of the mean and was calculated using the formula: S.E.M.=SD/square root (n), where SD is the standard deviation and n the number of observations (in this case animals/group).
# Statistical analyses were performed using Graph Pad Prism version 5. The measured parameters were compared using one-way ANOVA followed by Dunnett's multiple comparison test. Differences were considered statistically significant at p<0.05.
row,SMILES,Mean body weight change [%]
1,"CCCCCCCCCCCCCCCC(=O)N[C@@H](CCC(=O)NCCCC[C@H](NC(=O)[C@H](CO)NC(=O)[C@H](CC(=O)O)NC(=O)[C@H](CC(C)C)NC(=O)[C@H](Cc1ccc(O)cc1)NC(=O)[C@H](CCCCN)NC(=O)[C@H](CO)NC(=O)[C@H](Cc1ccc(O)cc1)NC(=O)[C@H](CC(=O)O)NC(=O)[C@H](CO)NC(=O)[C@@H](NC(=O)[C@H](Cc1ccccc1)NC(=O)[C@@H](NC(=O)CNC(=O)[C@H](CCC(N)=O)NC(=O)[C@H](CO)NC(=O)[C@@H](N)Cc1c[nH]cn1)[C@@H](C)O)[C@@H](C)O)C(=O)N[C@@H](C)C(=O)N[C@@H](C)C(=O)N[C@@H](Cc1c[nH]cn1)C(=O)N[C@@H](CC(=O)O)C(=O)N[C@@H](Cc1ccccc1)C(=O)N[C@H](C(=O)N[C@@H](CCC(=O)O)C(=O)N[C@@H](Cc1c[nH]c2ccccc12)C(=O)N[C@@H](CC(C)C)C(=O)N[C@@H](CC(C)C)C(=O)N[C@@H](CO)C(=O)N[C@@H](C)C(=O)O)C(C)C)C(=O)O [Compound 2, H-HSQGTFTSDYSKYLDS-K(Hexadecanoyl-isoGlu)-AAHDFVEWLLSA-OH] (H-HSQGTFTSDYSKYLDSK([γGlu-Palmitoyl])AAHDFVEWLLSA-OH)",−5.1
2,"CCCCCCCCCCCCCCCC(=O)N[C@@H](CCC(=O)NCCCC[C@H](NC(=O)[C@H](CO)NC(=O)[C@H](CC(=O)O)NC(=O)[C@H](CC(C)C)NC(=O)[C@H](Cc1ccc(O)cc1)NC(=O)[C@H](CCCCN)NC(=O)[C@H](CO)NC(=O)[C@H](Cc1ccc(O)cc1)NC(=O)[C@H](CC(=O)O)NC(=O)[C@H](CO)NC(=O)[C@@H](NC(=O)[C@H](Cc1ccccc1)NC(=O)[C@@H](NC(=O)CNC(=O)[C@H](CCC(N)=O)NC(=O)[C@H](CO)NC(=O)[C@@H](N)Cc1c[nH]cn1)[C@@H](C)O)[C@@H](C)O)C(=O)N[C@@H](C)C(=O)N[C@@H](C)C(=O)N[C@@H](CCC(=O)O)C(=O)N[C@@H](CC(=O)O)C(=O)N[C@@H](Cc1ccccc1)C(=O)N[C@H](C(=O)N[C@@H](CCC(=O)O)C(=O)N[C@@H](Cc1c[nH]c2ccccc12)C(=O)N[C@@H](CC(C)C)C(=O)N[C@@H](CC(C)C)C(=O)N[C@@H](CCCNC(=N)N)C(=O)N[C@@H](C)C(N)=O)C(C)C)C(=O)O [Compound 7, H-HSQGTFTSDYSKYLDS-K(Hexadecanoyl-isoGlu)-AAEDFVEWLLRA-NH2] (H-HSQGTFTSDYSKYLDSK([γGlu-Palmitoyl])AAEDFVEWLLRA-NH2)",−8.7
3,"CCCCCCCCCCCCCCCC(=O)N[C@@H](CCC(=O)NCCCC[C@H](NC(=O)[C@H](CCC(=O)O)NC(=O)[C@H](CC(=O)O)NC(=O)[C@H](CC(C)C)NC(=O)[C@H](Cc1ccc(O)cc1)NC(=O)[C@H](CCCCN)NC(=O)[C@H](CO)NC(=O)[C@H](Cc1ccc(O)cc1)NC(=O)[C@H](CC(=O)O)NC(=O)[C@H](CO)NC(=O)[C@@H](NC(=O)[C@H](Cc1ccccc1)NC(=O)[C@@H](NC(=O)CNC(=O)[C@H](CCC(N)=O)NC(=O)C(C)(C)NC(=O)[C@@H](N)Cc1c[nH]cn1)[C@@H](C)O)[C@@H](C)O)C(=O)N[C@@H](CCCNC(=N)N)C(=O)N[C@@H](C)C(=O)N[C@@H](CCCCN)C(=O)N[C@@H](CC(=O)O)C(=O)N[C@@H](Cc1ccccc1)C(=O)N[C@H](C(=O)N[C@@H](CCC(=O)O)C(=O)N[C@@H](Cc1c[nH]c2ccccc12)C(=O)N[C@@H](CC(C)C)C(=O)N[C@@H](CC(C)C)C(=O)N[C@@H](CO)C(=O)N[C@@H](C)C(=O)O)[C@@H](C)CC)C(=O)O [Compound 14, H-H-Aib-QGTFTSDYSKYLDE-K(Hexadecanoyl-isoGlu)-RAKDFIEWLLSA-OH] (H-H[Aib]QGTFTSDYSKYLDEK([γGlu-Palmitoyl])RAKDFIEWLLSA-OH)",−9.5
4,"CCCCCCCCCCCCCCCC(=O)N[C@@H](CCC(=O)NCCCC[C@H](NC(=O)[C@H](CCC(=O)O)NC(=O)[C@H](CC(=O)O)NC(=O)[C@H](CC(C)C)NC(=O)[C@H](Cc1ccc(O)cc1)NC(=O)[C@H](CCCCN)NC(=O)[C@H](CO)NC(=O)[C@H](Cc1ccc(O)cc1)NC(=O)[C@H](CC(=O)O)NC(=O)[C@H](CO)NC(=O)[C@@H](NC(=O)[C@H](Cc1ccccc1)NC(=O)[C@@H](NC(=O)CNC(=O)[C@H](CCC(N)=O)NC(=O)C(C)(C)NC(=O)[C@@H](N)Cc1c[nH]cn1)[C@@H](C)O)[C@@H](C)O)C(=O)N[C@@H](C)C(=O)N[C@@H](C)C(=O)N[C@@H](CCCCN)C(=O)N[C@@H](CC(=O)O)C(=O)N[C@@H](Cc1ccccc1)C(=O)N[C@H](C(=O)N[C@@H](CCC(=O)O)C(=O)N[C@@H](Cc1c[nH]c2ccccc12)C(=O)N[C@@H](CC(C)C)C(=O)N[C@@H](CCC(=O)O)C(=O)N[C@@H](CO)C(=O)N[C@@H](C)C(N)=O)[C@@H](C)CC)C(=O)O [Compound 15, H-H-Aib-QGTFTSDYSKYLDE-K(Hexadecanoyl-isoGlu)-AAKDFIEWLESA-NH2]",−10.9
5,"CCCCCCCCCCCCCCCC(=O)N[C@@H](CCC(=O)NCCCC[C@H](NC(=O)[C@H](CO)NC(=O)[C@H](CC(=O)O)NC(=O)[C@H](CC(C)C)NC(=O)[C@H](Cc1ccc(O)cc1)NC(=O)[C@H](CCCCN)NC(=O)[C@H](CO)NC(=O)[C@H](Cc1ccc(O)cc1)NC(=O)[C@H](CC(=O)O)NC(=O)[C@H](CO)NC(=O)[C@@H](NC(=O)[C@H](Cc1ccccc1)NC(=O)[C@@H](NC(=O)CNC(=O)[C@H](CCC(N)=O)NC(=O)C(C)(C)NC(=O)[C@@H](N)Cc1c[nH]cn1)[C@@H](C)O)[C@@H](C)O)C(=O)N[C@@H](C)C(=O)N[C@@H](C)C(=O)N[C@@H](CCC(=O)O)C(=O)N[C@@H](CC(=O)O)C(=O)N[C@@H](Cc1ccccc1)C(=O)N[C@H](C(=O)N[C@@H](CCC(=O)O)C(=O)N[C@@H](Cc1c[nH]c2ccccc12)C(=O)N[C@@H](CC(C)C)C(=O)N[C@@H](CCC(=O)O)C(=O)N[C@@H](CO)C(=O)N[C@@H](C)C(N)=O)C(C)C)C(=O)O [Compound 16, H-H-Aib-QGTFTSDYSKYLDS-K(Hexadecanoyl-isoGlu)-AAEDFVEWLESA-NH2] (H-H[Aib]QGTFTSDYSKYLDSK([γGlu-Palmitoyl])AAEDFVEWLESA-NH2)",−12.2

# From patent US10253081B2, “Glucagon analogues” (Zealand Pharma A/S, priority 2012, dated 2019)
